Laboratory results taken from ChEMBL document CHEMBL3879881, “Substituted pyrazolyl compounds for the treatment of inflammation” (2005).

Target: T1, Inhibitor of nuclear factor kappa-B kinase subunit beta (Homo sapiens, UniProt O14920)
T1 sequence (O14920 whole entry): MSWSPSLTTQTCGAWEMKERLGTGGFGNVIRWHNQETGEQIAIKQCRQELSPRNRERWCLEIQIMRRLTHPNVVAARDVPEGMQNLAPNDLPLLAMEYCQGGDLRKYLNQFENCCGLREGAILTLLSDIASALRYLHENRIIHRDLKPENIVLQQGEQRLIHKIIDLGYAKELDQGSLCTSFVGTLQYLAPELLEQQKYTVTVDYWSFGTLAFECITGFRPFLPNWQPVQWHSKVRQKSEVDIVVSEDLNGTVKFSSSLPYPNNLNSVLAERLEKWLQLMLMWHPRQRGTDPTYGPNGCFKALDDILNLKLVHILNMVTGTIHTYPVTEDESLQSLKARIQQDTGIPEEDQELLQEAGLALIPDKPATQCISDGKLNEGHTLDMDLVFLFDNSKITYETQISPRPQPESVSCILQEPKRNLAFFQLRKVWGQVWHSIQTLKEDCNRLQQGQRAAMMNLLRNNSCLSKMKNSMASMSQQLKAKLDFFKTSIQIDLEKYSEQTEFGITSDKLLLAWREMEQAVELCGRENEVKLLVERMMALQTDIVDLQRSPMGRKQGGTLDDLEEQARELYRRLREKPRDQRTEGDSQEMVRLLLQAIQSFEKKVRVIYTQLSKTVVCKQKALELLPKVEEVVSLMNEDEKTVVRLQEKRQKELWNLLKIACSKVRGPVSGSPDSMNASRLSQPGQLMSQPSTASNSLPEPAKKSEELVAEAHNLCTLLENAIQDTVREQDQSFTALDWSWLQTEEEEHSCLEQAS
Assay: Inhibition of human recombinant C-terminal FLAG-epitope-tagged IKK2 expressed in baculovirus using biotinylated IkappaBalpha peptide as substrate assessed as decrease in [gamma-33P]-ATP incorporation in substrate after 30 mins by scintillation counting method

`CN(C)CCOc1ccc(Cl)c(C(=O)Nc2ccc3c(c2)-c2c(c(C(N)=O)nn2-c2ccc4c(c2)OCO4)CC3)c1` and `C[S+]([O-])c1ccc(Cl)c(C(=O)Nc2ccc3c(c2)-c2c(c(C(N)=O)nn2-c2ccc4c(c2)OCO4)CC3)c1` (centres undefined) cannot be ordered by IC50: 1 to 10 µM for the first, ≤ 1 µM for the second.

`CS(=O)(=O)c1ccc(-n2nc(C(N)=O)c3c2-c2cc(NC(=O)C4CCC4)ccc2CC3)cc1` and `CS(=O)(=O)c1ccc(-n2nc(C(N)=O)c3c2-c2cc(NC(=O)c4cn[nH]c4)ccc2CC3)cc1` fall in the same range of IC50: 1 to 10 µM for the first, 1 to 10 µM for the second.

`COc1cccc(C(=O)Nc2ccc3c(c2)-c2c(c(C(N)=O)nn2-c2ccc(S(C)(=O)=O)cc2)CC3)c1` and `COc1cccc(C(=O)Nc2ccc3c(c2)-c2c(c(C(N)=O)nn2-c2ccc(S(N)(=O)=O)cc2)CC3)c1` cannot be ordered by IC50: 1 to 10 µM for the first, ≤ 1 µM for the second.

`CS(=O)(=O)c1ccc(-n2nc(C(N)=O)c3c2-c2cc(NC(=O)[C@@H](N)Cc4c[nH]cn4)ccc2CC3)cc1` and `CS(=O)(=O)c1ccc(-n2nc(C(N)=O)c3c2-c2cc(NC(=O)c4cnccc4Cl)ccc2CC3)cc1` fall in the same range of IC50: 1 to 10 µM for the first, 1 to 10 µM for the second.

`Cc1nnsc1C(=O)Nc1ccc2c(c1)-c1c(c(C(N)=O)nn1-c1ccc3c(c1)OCO3)CC2` and `Cc1ncccc1C(=O)Nc1ccc2c(c1)-c1c(c(C(N)=O)nn1-c1ccc3c(c1)OCO3)CC2` fall in the same range of IC50: 1 to 10 µM for the first, 1 to 10 µM for the second.

First: NC(=O)c1nn(-c2ccc(S(N)(=O)=O)cc2)c2c1CCc1ccc(NS(=O)(=O)c3ccccc3Cl)cc1-2
Second: NC(=O)c1nn(-c2ccc(S(N)(=O)=O)cc2)c2c1CCc1ccc(NS(=O)(=O)c3cccc(Cl)c3)cc1-2
The IC50 of the first is higher: 10 to 100 µM for the first, 1 to 10 µM for the second. The second is the more potent here.

`Cc1cccc(C(=O)Nc2ccc3c(c2)-c2c(c(C(N)=O)nn2-c2ccc(S(C)(=O)=O)cc2)CC3)c1` and `Cc1c(O)cccc1C(=O)Nc1ccc2c(c1)-c1c(c(C(N)=O)nn1-c1ccc(S(C)(=O)=O)cc1)CC2` cannot be ordered by IC50: 1 to 10 µM for the first, ≤ 1 µM for the second.

`NC(=O)c1nn(-c2ccc(S(N)(=O)=O)cc2)c2c1CCc1ccc(NC(=O)c3ccccc3Br)cc1-2` and `NC(=O)c1nn(-c2ccc(S(N)(=O)=O)cc2)c2c1CCc1ccc(NC(=O)c3ccccc3F)cc1-2` cannot be ordered by IC50: ≤ 1 µM for the first, ≤ 1 µM for the second.

`CSc1ccccc1C(=O)Nc1ccc2c(c1)-c1c(c(C(N)=O)nn1-c1ccc(S(C)(=O)=O)cc1)CC2` and `CS(=O)(=O)c1ccc(-n2nc(C(N)=O)c3c2-c2cc(NC(=O)c4ccccc4N)ccc2CC3)cc1` fall in the same range of IC50: 1 to 10 µM for the first, 1 to 10 µM for the second.

First: Cc1cccc(S(=O)(=O)Nc2ccc3c(c2)-c2c(c(C(N)=O)nn2-c2ccc(S(N)(=O)=O)cc2)CC3)c1
Second: NC(=O)c1nn(-c2ccc(S(N)(=O)=O)cc2)c2c1CCc1ccc(NS(=O)(=O)c3cccc(Br)c3)cc1-2
The IC50 of the first is higher: 10 to 100 µM for the first, 1 to 10 µM for the second. The second is the more potent here.

`CS(=O)(=O)c1ccc(-n2nc(C(N)=O)c3c2-c2cc(NC(=O)c4cc(Cl)ccc4N)ccc2CC3)cc1` and `C[S+]([O-])c1ccc(Cl)c(C(=O)Nc2ccc3c(c2)-c2c(c(C(N)=O)nn2-c2ccc(S(C)(=O)=O)cc2)CC3)c1` (centres undefined) cannot be ordered by IC50: 1 to 10 µM for the first, ≤ 1 µM for the second.

`CS(=O)(=O)Nc1ccc2c(c1)-c1c(c(C(N)=O)nn1-c1ccc(F)cc1)CC2` and `CS(=O)(=O)c1ccc(-n2nc(C(N)=O)c3c2-c2cc(N)ccc2CC3)cc1` fall in the same range of IC50: 1 to 10 µM for the first, 1 to 10 µM for the second.

`NC(=O)c1nn(-c2ccc3c(c2)OCO3)c2c1CCc1ccc(NC(=O)c3cc(Cl)ncc3Cl)cc1-2` and `NC(=O)c1nn(-c2ccc3c(c2)OCO3)c2c1CCc1ccc(NC(=O)c3cc(Cl)cnc3Cl)cc1-2` cannot be ordered by IC50: ≤ 1 µM for the first, ≤ 1 µM for the second.

`CN1CCN(c2ccc(Cl)c(C(=O)Nc3ccc4c(c3)-c3c(c(C(N)=O)nn3-c3ccc(S(C)(=O)=O)cc3)CC4)c2)CC1` and `CN1CCN(c2ccc(Cl)c(C(=O)Nc3ccc4c(c3)-c3c(c(C(N)=O)nn3-c3ccc5c(c3)OCO5)CC4)c2)CC1` cannot be ordered by IC50: < 1 µM for the first, ≤ 1 µM for the second.

`N#Cc1cccc(C(=O)Nc2ccc3c(c2)-c2c(c(C(N)=O)nn2-c2ccc(S(N)(=O)=O)cc2)CC3)c1` and `NC(=O)c1nn(-c2ccc(S(N)(=O)=O)cc2)c2c1CCc1ccc(NC(=O)c3cccc(Br)c3)cc1-2` cannot be ordered by IC50: ≤ 1 µM for the first, ≤ 1 µM for the second.

`CN(C)CC(=O)Nc1ccc(C(=O)Nc2ccc3c(c2)-c2c(c(C(N)=O)nn2-c2ccc4c(c2)OCO4)CC3)c(Cl)c1` and `NC(=O)c1nn(-c2ccc(F)cc2)c2c1CCc1ccc(NC(=O)c3cc4c(cc3Cl)OCO4)cc1-2` cannot be ordered by IC50: 1 to 10 µM for the first, ≤ 1 µM for the second.

`NC(=O)c1nn(-c2ccc(S(N)(=O)=O)cc2)c2c1CCc1ccc(NC(=O)c3c(Cl)cccc3Cl)cc1-2` and `NC(=O)c1nn(-c2ccc(S(N)(=O)=O)cc2)c2c1CCc1ccc(NC(=O)c3cccc(Cl)c3Cl)cc1-2` cannot be ordered by IC50: ≤ 1 µM for the first, ≤ 1 µM for the second.

`NC(=O)c1nn(-c2ccc(F)cc2)c2c1CCc1ccc(NC(=O)c3cc(Cl)ncc3Cl)cc1-2` and `C[S+]([O-])c1ccc(Cl)c(C(=O)Nc2ccc3c(c2)-c2c(c(C(N)=O)nn2-c2ccc(F)cc2)CC3)c1` (centres undefined) cannot be ordered by IC50: ≤ 1 µM for the first, ≤ 1 µM for the second.

`CS(=O)(=O)c1ccc(-n2nc(C(N)=O)c3c2-c2cc(NC(=O)c4cc(S(C)(=O)=O)ccc4Cl)ccc2CC3)cc1` and `Cc1cccc(C(=O)Nc2ccc3c(c2)-c2c(c(C(N)=O)nn2-c2ccc(S(C)(=O)=O)cc2)CC3)c1C` cannot be ordered by IC50: ≤ 1 µM for the first, 1 to 10 µM for the second.

`NC(=O)c1nn(-c2ccc3c(c2)OCO3)c2c1CCc1ccc(NC(=O)c3ccoc3)cc1-2` and `NC(=O)c1nn(-c2ccc3c(c2)OCO3)c2c1CCc1ccc(NC(=O)c3cc[n+]([O-])cc3)cc1-2` fall in the same range of IC50: 1 to 10 µM for the first, 1 to 10 µM for the second.

`CS(=O)(=O)c1ccc(-n2nc(C(N)=O)c3c2-c2cc(NC(=O)Cc4ccccc4)ccc2CC3)cc1` and `COc1cccc(CC(=O)Nc2ccc3c(c2)-c2c(c(C(N)=O)nn2-c2ccc(S(N)(=O)=O)cc2)CC3)c1` fall in the same range of IC50: 1 to 10 µM for the first, 1 to 10 µM for the second.

`NC(=O)c1nn(-c2ccc(S(N)(=O)=O)cc2)c2c1CCc1ccc(NC(=O)c3cccnc3)cc1-2` and `NC(=O)c1nn(-c2ccc(S(N)(=O)=O)cc2)c2c1CCc1ccc(NC(=O)c3cccc(Cl)c3)cc1-2` cannot be ordered by IC50: ≤ 1 µM for the first, ≤ 1 µM for the second.

`NC(=O)c1nn(-c2ccc(S(N)(=O)=O)cc2)c2c1CCc1ccc(NC(=O)c3cccnc3Cl)cc1-2` and `NC(=O)c1nn(-c2ccc(S(N)(=O)=O)cc2)c2c1CCc1ccc(NC(=O)c3ccccc3Cl)cc1-2` cannot be ordered by IC50: ≤ 1 µM for the first, ≤ 1 µM for the second.

`Cc1ccn2c(C)c(C(=O)Nc3ccc4c(c3)-c3c(c(C(N)=O)nn3-c3ccc(S(C)(=O)=O)cc3)CC4)nc2c1` and `Cc1cccc(C(=O)Nc2ccc3c(c2)-c2c(c(C(N)=O)nn2-c2ccc(S(C)(=O)=O)cc2)CC3)c1[N+](=O)[O-]` fall in the same range of IC50: 1 to 10 µM for the first, 1 to 10 µM for the second.

`CS(=O)(=O)c1ccc(-n2nc(C(N)=O)c3c2-c2cc(NC(=O)c4cc(N=[N+]=[N-])ccc4[N+](=O)O)ccc2CC3)cc1` and `Cc1c(C(=O)Nc2ccc3c(c2)-c2c(c(C(N)=O)nn2-c2ccc(S(C)(=O)=O)cc2)CC3)cccc1[N+](=O)[O-]` cannot be ordered by IC50: ≤ 1 µM for the first, 1 to 10 µM for the second.

First: CC(=O)Oc1cccc(C(=O)Nc2ccc3c(c2)-c2c(c(C(N)=O)nn2-c2ccc(S(C)(=O)=O)cc2)CC3)c1C
Second: COc1ccccc1C(=O)Nc1ccc2c(c1)-c1c(c(C(N)=O)nn1-c1ccc(S(N)(=O)=O)cc1)CC2
The IC50 of the first is lower: 1 to 10 µM for the first, 10 to 100 µM for the second.

`N#Cc1ccc(C(=O)Nc2ccc3c(c2)-c2c(c(C(N)=O)nn2-c2ccc4c(c2)OCO4)CC3)cc1` and `CC(=O)c1ccc(C(=O)Nc2ccc3c(c2)-c2c(c(C(N)=O)nn2-c2ccc4c(c2)OCO4)CC3)cc1` fall in the same range of IC50: 1 to 10 µM for the first, 1 to 10 µM for the second.

`Cc1ccccc1C(=O)Nc1ccc2c(c1)-c1c(c(C(N)=O)nn1-c1ccc3c(c1)OCO3)CC2` and `NC(=O)c1nn(-c2ccc3c(c2)OCO3)c2c1CCc1ccc(NC(=O)c3ccccc3OC(F)(F)F)cc1-2` fall in the same range of IC50: 1 to 10 µM for the first, 1 to 10 µM for the second.

`CSc1ncc(Cl)c(C(=O)Nc2ccc3c(c2)-c2c(c(C(N)=O)nn2-c2ccc4c(c2)OCO4)CC3)n1` and `NC(=O)c1nn(-c2ccc3c(c2)OCO3)c2c1CCc1ccc(NC(=O)c3nc(Cl)ccc3Cl)cc1-2` cannot be ordered by IC50: ≤ 1 µM for the first, 1 to 10 µM for the second.

`NC(=O)c1nn(-c2ccc(S(N)(=O)=O)cc2)c2c1CCc1ccc(NC(=O)c3ccccc3C(F)(F)F)cc1-2` and `NC(=O)c1nn(-c2ccc(S(N)(=O)=O)cc2)c2c1CCc1ccc(NC(=O)c3ccccc3OC(F)(F)F)cc1-2` cannot be ordered by IC50: ≤ 1 µM for the first, ≤ 1 µM for the second.

`NC(=O)c1nn(-c2ccc3c(c2)OCO3)c2c1CCc1ccc(NC(=O)c3cccc(O)n3)cc1-2` and `NC(=O)c1nn(-c2ccc3c(c2)OCO3)c2c1CCc1ccc(NC(=O)c3cccnc3N)cc1-2` fall in the same range of IC50: 1 to 10 µM for the first, 1 to 10 µM for the second.

`NC(=O)c1nn(-c2ccc(F)cc2)c2c1CCc1ccc(NC(=O)c3ccncc3)cc1-2` and `Cc1ccccc1C(=O)Nc1ccc2c(c1)-c1c(c(C(N)=O)nn1-c1ccc(S(N)(=O)=O)cc1)CC2` cannot be ordered by IC50: 1 to 10 µM for the first, ≤ 1 µM for the second.

`COc1ccc([N+](=O)[O-])c(C(=O)Nc2ccc3c(c2)-c2c(c(C(N)=O)nn2-c2ccc4c(c2)OCO4)CC3)c1` and `NC(=O)c1nn(-c2ccc3c(c2)OCO3)c2c1CCc1ccc(NC(=O)c3ccc(Cl)c(N)c3)cc1-2` fall in the same range of IC50: 1 to 10 µM for the first, 1 to 10 µM for the second.

Compared with `COc1ccc(CNc2ncccc2C(=O)Nc2ccc3c(c2)-c2c(c(C(N)=O)nn2-c2ccc4c(c2)OCO4)CC3)cc1`, `CN1CCN(c2cc(C(=O)Nc3ccc4c(c3)-c3c(c(C(N)=O)nn3-c3ccc5c(c3)OCO5)CC4)c(Cl)cn2)CC1` is lower in IC50: 10 to 100 µM for the first, ≤ 1 µM for the second. The second is the more potent here.

`NC(=O)c1nn(-c2ccc3c(c2)OCO3)c2c1CCc1ccc(NC(=O)c3cc(N4CCNCC4)ncc3Cl)cc1-2` was tested, and the IC50 was ≤ 1 µM.
